{"source": "the supplement of paper PMC10307832", "experiment_in_all_cases": "relative viability (nuclei count vs DMSO), 5 days (fraction); higher = more cells survive", "key": {"LXF-289": {"test_system": "LXF-289", "in_short": "(§1)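 Values are medians from duplicate plates. Each reflects relative viability, defined as the nuclei count of treated wells over that of vehicle wells. Lung cancer cell lines in 1536-well plates were pin-tool dosed one day after seeding with one drug alone or with a fixed anchor-drug dose plus five library-drug doses (not always all listed) in √10 steps, then fixed, stained and imaged at 4× after 5 days.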"}, "EPLC-272H": {"test_system": "EPLC-272H", "in_short": "as §1"}, "ChaGo-K-1": {"test_system": "ChaGo-K-1", "in_short": "as §1"}, "EKVX": {"test_system": "EKVX", "in_short": "as §1"}, "NCI-H322M": {"test_system": "NCI-H322M", "in_short": "as §1"}, "LK-2": {"test_system": "LK-2", "in_short": "as §1"}, "NCI-H1975": {"test_system": "NCI-H1975", "in_short": "as §1"}, "NCI-H1563": {"test_system": "NCI-H1563", "in_short": "as §1"}, "NCI-H23": {"test_system": "NCI-H23", "in_short": "as §1"}, "RERF-LC-KJ": {"test_system": "RERF-LC-KJ", "in_short": "as §1"}, "NCI-H2405": {"test_system": "NCI-H2405", "in_short": "as §1"}, "SW 900": {"test_system": "SW 900", "in_short": "as §1"}}}
{"smiles": "O=c1cc(N2CCOCC2)oc2c(-c3cccc4c3sc3ccccc34)cccc12", "note": "+ Cc1nc(Nc2ncc(C(=O)Nc3c(C)cccc3Cl)s2)cc(N2CCN(CCO)CC2)n1 [Dasatinib] (partner 0.075 µM)", "values": [{"measurement": "relative viability", "setting": "LXF-289; first compound 0.03162 µM", "value": 0.223}, {"measurement": "relative viability", "setting": "LXF-289; first compound 0.1 µM", "value": 0.187}, {"measurement": "relative viability", "setting": "LXF-289; first compound 0.3162 µM", "value": 0.213}, {"measurement": "relative viability", "setting": "LXF-289; first compound 1 µM", "value": 0.247}, {"measurement": "relative viability", "setting": "EPLC-272H; first compound 0.01 µM", "value": 0.445}, {"measurement": "relative viability", "setting": "EPLC-272H; first compound 0.03162 µM", "value": 0.424}, {"measurement": "relative viability", "setting": "EPLC-272H; first compound 0.3162 µM", "value": 0.339}, {"measurement": "relative viability", "setting": "EPLC-272H; first compound 1 µM", "value": 0.263}, {"measurement": "relative viability", "setting": "ChaGo-K-1; first compound 0.01 µM", "value": 0.402}, {"measurement": "relative viability", "setting": "ChaGo-K-1; first compound 0.03162 µM", "value": 0.641}, {"measurement": "relative viability", "setting": "ChaGo-K-1; first compound 0.1 µM", "value": 0.517}, {"measurement": "relative viability", "setting": "ChaGo-K-1; first compound 0.3162 µM", "value": 0.609}, {"measurement": "relative viability", "setting": "ChaGo-K-1; first compound 1 µM", "value": 0.73}, {"measurement": "relative viability", "setting": "EKVX; first compound 0.01 µM", "value": 0.528}, {"measurement": "relative viability", "setting": "EKVX; first compound 0.03162 µM", "value": 0.469}, {"measurement": "relative viability", "setting": "EKVX; first compound 0.1 µM", "value": 0.672}, {"measurement": "relative viability", "setting": "EKVX; first compound 0.3162 µM", "value": 0.607}, {"measurement": "relative viability", "setting": "EKVX; first compound 1 µM", "value": 0.605}, {"measurement": "relative viability", "setting": "NCI-H322M; first compound 0.01 µM", "value": 0.231}, {"measurement": "relative viability", "setting": "NCI-H322M; first compound 0.03162 µM", "value": 0.255}, {"measurement": "relative viability", "setting": "NCI-H322M; first compound 0.1 µM", "value": 0.292}, {"measurement": "relative viability", "setting": "NCI-H322M; first compound 0.3162 µM", "value": 0.252}, {"measurement": "relative viability", "setting": "NCI-H322M; first compound 1 µM", "value": 0.224}, {"measurement": "relative viability", "setting": "LK-2; first compound 0.01 µM", "value": 0.329}, {"measurement": "relative viability", "setting": "LK-2; first compound 0.03162 µM", "value": 0.289}, {"measurement": "relative viability", "setting": "LK-2; first compound 0.1 µM", "value": 0.338}, {"measurement": "relative viability", "setting": "LK-2; first compound 0.3162 µM", "value": 0.339}, {"measurement": "relative viability", "setting": "LK-2; first compound 1 µM", "value": 0.279}, {"measurement": "relative viability", "setting": "NCI-H1975; first compound 0.01 µM", "value": 0.333}, {"measurement": "relative viability", "setting": "NCI-H1975; first compound 0.03162 µM", "value": 0.349}, {"measurement": "relative viability", "setting": "NCI-H1975; first compound 0.1 µM", "value": 0.333}, {"measurement": "relative viability", "setting": "NCI-H1975; first compound 0.3162 µM", "value": 0.378}, {"measurement": "relative viability", "setting": "NCI-H1975; first compound 1 µM", "value": 0.404}, {"measurement": "relative viability", "setting": "NCI-H1563; first compound 0.01 µM", "value": 0.445}, {"measurement": "relative viability", "setting": "NCI-H1563; first compound 0.03162 µM", "value": 0.451}, {"measurement": "relative viability", "setting": "NCI-H1563; first compound 0.1 µM", "value": 0.445}, {"measurement": "relative viability", "setting": "NCI-H1563; first compound 0.3162 µM", "value": 0.51}, {"measurement": "relative viability", "setting": "NCI-H1563; first compound 1 µM", "value": 0.412}, {"measurement": "relative viability", "setting": "NCI-H23; first compound 0.01 µM", "value": 0.828}, {"measurement": "relative viability", "setting": "NCI-H23; first compound 0.03162 µM", "value": 0.911}, {"measurement": "relative viability", "setting": "NCI-H23; first compound 0.3162 µM", "value": 0.815}, {"measurement": "relative viability", "setting": "NCI-H23; first compound 1 µM", "value": 0.857}, {"measurement": "relative viability", "setting": "RERF-LC-KJ; first compound 0.01 µM", "value": 0.85}, {"measurement": "relative viability", "setting": "RERF-LC-KJ; first compound 0.03162 µM", "value": 0.918}, {"measurement": "relative viability", "setting": "RERF-LC-KJ; first compound 0.1 µM", "value": 0.934}, {"measurement": "relative viability", "setting": "RERF-LC-KJ; first compound 0.3162 µM", "value": 0.769}, {"measurement": "relative viability", "setting": "RERF-LC-KJ; first compound 1 µM", "value": 0.818}, {"measurement": "relative viability", "setting": "NCI-H2405; first compound 0.01 µM", "value": 0.188}, {"measurement": "relative viability", "setting": "NCI-H2405; first compound 0.03162 µM", "value": 0.224}, {"measurement": "relative viability", "setting": "NCI-H2405; first compound 0.1 µM", "value": 0.201}, {"measurement": "relative viability", "setting": "NCI-H2405; first compound 0.3162 µM", "value": 0.238}, {"measurement": "relative viability", "setting": "NCI-H2405; first compound 1 µM", "value": 0.196}, {"measurement": "relative viability", "setting": "SW 900; first compound 0.01 µM", "value": 0.476}, {"measurement": "relative viability", "setting": "SW 900; first compound 0.03162 µM", "value": 0.648}, {"measurement": "relative viability", "setting": "SW 900; first compound 0.1 µM", "value": 0.66}, {"measurement": "relative viability", "setting": "SW 900; first compound 0.3162 µM", "value": 0.539}, {"measurement": "relative viability", "setting": "SW 900; first compound 1 µM", "value": 0.507}]}
